The NIST ThermoML archive (doi:10.1021/je020067x)
Numbers after ± are expanded uncertainties.

Key:
[1] = 303.15 K, 101.33 kPa, Liquid; for viscosity: Capillary tube (Ostwald / Ubbelohde) method; for mass density: Vibrating tube method
[2] = xn = mol fraction of the nth substance listed; details: 303.15 K, 101.33 kPa, Liquid; for viscosity: Capillary tube (Ostwald / Ubbelohde) method; for mass density: Vibrating tube method

ClCCl [dichloromethane]
[1]
Details | mass density [kg/m3] | viscosity [mPa·s]
– | 1307.6 ± 0.7 | 0.3929 ± 0.0035

ClCCl [dichloromethane] + ClC(Cl)Cl
[2]
Details | mass density [kg/m3] | viscosity [mPa·s]
x1 = 0.0633 | 1462.3 ± 0.8 | 0.504 ± 0.0043
x1 = 0.1191 | 1454.8 ± 0.8 | 0.4976 ± 0.0043
x1 = 0.1924 | 1444.7 ± 0.7 | 0.4892 ± 0.0042
x1 = 0.3101 | 1427.8 ± 0.7 | 0.4741 ± 0.0041
x1 = 0.3607 | 1420.3 ± 0.7 | 0.4686 ± 0.0041
x1 = 0.4299 | 1409.7 ± 0.7 | 0.4602 ± 0.004
x1 = 0.5221 | 1395.1 ± 0.7 | 0.4501 ± 0.0039
x1 = 0.6464 | 1374.3 ± 0.7 | 0.4352 ± 0.0038
x1 = 0.6833 | 1367.8 ± 0.7 | 0.4301 ± 0.0038
x1 = 0.74 | 1357.8 ± 0.7 | 0.4236 ± 0.0037
x1 = 0.7979 | 1347.1 ± 0.7 | 0.4163 ± 0.0037
x1 = 0.8681 | 1333.9 ± 0.7 | 0.4083 ± 0.0036
x1 = 0.9034 | 1327 ± 0.7 | 0.404 ± 0.0036
x1 = 0.9358 | 1320.6 ± 0.7 | 0.4005 ± 0.0036

ClC(Cl)(Cl)Cl [tetrachloromethane]
[1]
Details | mass density [kg/m3] | viscosity [mPa·s]
– | 1575 ± 0.8 | 0.8403 ± 0.0068

ClC(Cl)(Cl)Cl [tetrachloromethane] + ClC(Cl)Cl
[2]
Details | mass density [kg/m3] | viscosity [mPa·s]
x1 = 0.0591 | 1477.2 ± 0.8 | 0.5216 ± 0.0044
x1 = 0.075 | 1479 ± 0.8 | 0.5248 ± 0.0045
x1 = 0.1297 | 1485.1 ± 0.8 | 0.5343 ± 0.0045
x1 = 0.2236 | 1495.3 ± 0.8 | 0.5538 ± 0.0047
x1 = 0.2777 | 1501.2 ± 0.8 | 0.5658 ± 0.0048
x1 = 0.3416 | 1508.1 ± 0.8 | 0.5811 ± 0.0049
x1 = 0.434 | 1517.9 ± 0.8 | 0.6041 ± 0.005
x1 = 0.4886 | 1523.6 ± 0.8 | 0.6201 ± 0.0052
x1 = 0.5736 | 1532.5 ± 0.8 | 0.6486 ± 0.0054
x1 = 0.6646 | 1541.8 ± 0.8 | 0.6807 ± 0.0056
x1 = 0.7747 | 1552.9 ± 0.8 | 0.7256 ± 0.0059
x1 = 0.8186 | 1557.3 ± 0.8 | 0.7458 ± 0.0061
x1 = 0.8904 | 1564.4 ± 0.8 | 0.7804 ± 0.0063
x1 = 0.9305 | 1568.3 ± 0.8 | 0.8017 ± 0.0065

ClC(Cl)(Cl)Cl [tetrachloromethane] + ClCCl
[2]
Details | mass density [kg/m3] | viscosity [mPa·s]
x1 = 0.0375 | 1321.5 ± 0.7 | 0.4008 ± 0.0037
x1 = 0.0622 | 1330.4 ± 0.7 | 0.4061 ± 0.0037
x1 = 0.0791 | 1336.4 ± 0.7 | 0.4097 ± 0.0038
x1 = 0.0889 | 1339.9 ± 0.7 | 0.412 ± 0.0038
x1 = 0.1254 | 1352.4 ± 0.7 | 0.421 ± 0.0038
x1 = 0.2047 | 1378.4 ± 0.7 | 0.441 ± 0.004
x1 = 0.2305 | 1386.5 ± 0.7 | 0.4479 ± 0.004
x1 = 0.297 | 1406.7 ± 0.7 | 0.4669 ± 0.0042
x1 = 0.3695 | 1427.7 ± 0.7 | 0.4897 ± 0.0043
x1 = 0.4985 | 1462.5 ± 0.8 | 0.5369 ± 0.0047
x1 = 0.4986 | 1462.5 ± 0.8 | 0.5374 ± 0.0047
x1 = 0.4997 | 1462.8 ± 0.8 | 0.5375 ± 0.0047
x1 = 0.5631 | 1478.9 ± 0.8 | 0.564 ± 0.0049
x1 = 0.609 | 1490.1 ± 0.8 | 0.5853 ± 0.005
x1 = 0.6845 | 1508 ± 0.8 | 0.6223 ± 0.0053
x1 = 0.8006 | 1533.9 ± 0.8 | 0.6894 ± 0.0058
x1 = 0.8032 | 1534.5 ± 0.8 | 0.6915 ± 0.0058
x1 = 0.8652 | 1547.7 ± 0.8 | 0.7331 ± 0.0061
x1 = 0.9279 | 1560.7 ± 0.8 | 0.7792 ± 0.0064
x1 = 0.9677 | 1568.6 ± 0.8 | 0.8116 ± 0.0066

ClC(Cl)Cl [trichloromethane]
[1]
Details | mass density [kg/m3] | viscosity [mPa·s]
– | 1470.5 ± 0.8 | 0.5118 ± 0.0044
